The target of this assay is T1, FXR ligand binding domain (Homo sapiens, UniProt Q96RI1).
T1 construct: made in house; host or cells: E. coli BL21 (pLysS)
T1 sequence (Q96RI1 193-472 isoform Q96RI1-2): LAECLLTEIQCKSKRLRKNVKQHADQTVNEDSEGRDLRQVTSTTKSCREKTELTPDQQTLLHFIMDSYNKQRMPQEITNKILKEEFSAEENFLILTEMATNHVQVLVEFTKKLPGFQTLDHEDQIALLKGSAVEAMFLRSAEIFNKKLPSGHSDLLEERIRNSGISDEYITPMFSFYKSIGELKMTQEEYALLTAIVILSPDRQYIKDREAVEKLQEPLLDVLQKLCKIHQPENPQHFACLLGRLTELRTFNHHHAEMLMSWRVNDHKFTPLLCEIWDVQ
The assay is described as follows: Radioligand Binding Assay (scintillation proximity radioligand displacement). As to conditions: GST-FXR LBD fusion protein on SPA beads, test compound 6×10^−9 M to 2.5×10^−5 M. Here is the method:
The following tests were carried out in order to determine the activity of the compounds of formula (I). Background information on the binding assay can be found in: Nichols J S et al. “Development of a scintillation proximity assay for peroxisome proliferator-activated receptor gamma ligand binding domain”, (1998) Anal. Biochem. 257: 112-119.
Bacterial and mammalian expression vectors were constructed to produce glutathione-s-transferase (GST) and Gal4 DNA binding domain (GAL) proteins fused to the ligand binding domain (LBD) of human FXR (aa 193-473). To accomplish this, the portions of the sequences encoding the FXR LBD were amplified by polymerase chain reaction (PCR) from a full-length clone by PCR and then subcloned into the plasmid vectors. The final clone was verified by DNA sequence analysis.
The induction, expression, and subsequent purification of GST-LBD fusion protein was performed in E. coli strain BL21 (pLysS) cells by standard methods (Current Protocols in Molecular Biology, Wiley Press, ed. Ausubel et al.).
Radioligand Binding Assay
Binding of test substances to the FXR ligand binding domain was assessed in a radioligand displacement assay. The assay was performed in a buffer consisting of 50 mM Hepes, pH 7.4, 10 mM NaCl, 5 mM MgCl2, 0.01% CHAPS. For each reaction well in a 96-well plate, 40 nM of GST-FXR LBD fusion protein was bound to […] glutathione ytrium silicate SPA beads (PharmaciaAmersham) in a final volume of […] by shaking. A radioligand (e.g., 20 nM of 2,N-dicyclohexyl-2-[2-(2,4 dimethoxy-phenyl)-benzoimidazol-1-yl]-acetamide) and test compounds were added, and scintillation proximity counting was performed. All binding assays were performed in 96-well plates and the amount of bound ligand was measured on a Packard TopCount using OptiPlates (Packard). Dose response curves were performed within a range of test compound concentrations from 6×10^−9 M to 2.5×10^−5 M and IC50 values were calculated.
In general terms: Scintillation proximity formats need no separation of bound from free tracer.
By IC50 is commonly meant the concentration that gives 50% inhibition. `Fc1cc2nc(-c3ccc(Cl)cc3OCC3CCCC3)n(Cc3ccccc3)c2cc1F` [Example 49, 1-Benzyl-2-(4-chloro-2-cyclopentylmethoxy-phenyl)-5,6-difluoro-1H-benzoimidazole] had an IC50 of 1100 nM.
Regarding `O=C(O)COc1ccc(COc2cc(Cl)ccc2-c2nc3cc(F)c(F)cc3n2Cc2cccc(Cl)c2)cc1` [Example 57, (4-{5-Chloro-2-[1-(3-chloro-benzyl)-5,6-difluoro-1H-benzoimidazol-2-yl]-phenoxymethyl}-phenoxy)-acetic acid], the IC50 came to 200 nM. This IC50 is about 5.5-fold lower than that of the compound before.
On to `Fc1cc2nc(-c3cccnc3OCc3ccccc3Cl)n(Cc3ccccc3)c2cc1F` [Example 6, 1-Benzyl-2-[2-(2-chloro-benzyloxy)-pyridin-3-yl]-5,6-difluoro-1H-benzoimidazole], for which the IC50 was found to be 1800 nM.
The same measure for `Fc1cc2nc(-c3ccc(Cl)cc3OCC3CCCCC3)n(Cc3ccc(-c4nnn[nH]4)cc3F)c2cc1F` [Example 87, 2-(4-Chloro-2-cyclohexylmethoxy-phenyl)-5,6-difluoro-1-[2-fluoro-4-(1H-tetrazol-5-yl)-benzyl]-1H-benzoimidazole]: 20 nM; for `Fc1cc2nc(-c3ccc(Cl)cc3OC3CCCCC3)n(Cc3ccc(-c4nnn[nH]4)cc3F)c2cc1F` [Example 96, 2-(4-Chloro-2-cyclohexyloxy-phenyl)-5,6-difluoro-1-[2-fluoro-4-(1H-tetrazol-5-yl)-benzyl]-1H-benzoimidazole]: 20 nM; for `Fc1cc2nc(-c3ccc(Cl)cc3OCC3CCCC3)n(Cc3ccc(-c4nnn[nH]4)c(F)c3)c2cc1F` [Example 69, 2-(4-Chloro-2-cyclopentylmethoxy-phenyl)-5,6-difluoro-1-[3-fluoro-4-(1H-tetrazol-5-yl)-benzyl]-1H-benzoimidazole]: 80 nM.
In turn, `O=C(O)COc1ccc(CCc2ccccc2-c2nc3ccccc3n2CC2CCCCC2)cc1` [Example 79, (4-{2-[2-(1-Cyclohexylmethyl-1H-benzoimidazol-2-yl)-phenyl]-ethyl}-phenoxy)-acetic acid] displayed an IC50 of 80 nM.
In the case of `Fc1cc2nc(-c3ccc(Cl)cc3OCC3CCOCC3)n(Cc3ccc(-c4nnn[nH]4)cc3F)c2cc1F` [Example 90, 2-[4-Chloro-2-(tetrahydro-pyran-4-ylmethoxy)-phenyl]-5,6-difluoro-1-[2-fluoro-4-(1H-tetrazol-5-yl)-benzyl]-1H-benzoimidazole], the IC50 amounted to 1600 nM.
For `O=C(O)CCc1ccc(Cn2c(-c3ccc(Cl)cc3OCC3CC3)nc3cc(F)c(F)cc32)cc1` [Example 60, 3-{4-[2-(4-Chloro-2-cyclopropylmethoxy-phenyl)-5,6-difluoro-benzoimidazol-1-ylmethyl]-phenyl}-propionic acid] the value was 1300 nM.
The same measure for `Fc1cc2nc(-c3ccc(Cl)cc3OCc3cccc(-c4nnn[nH]4)c3)n(CC3CCCCC3)c2cc1F` [Example 30, 2-{4-Chloro-2-[3-(1H-tetrazol-5-yl)-benzyloxy]-phenyl}-1-cyclohexylmethyl-5,6-difluoro-1H-benzoimidazole]: 400 nM; for `Fc1cc2nc(-c3cccnc3OCC3CCCC3)n(CC3CCCCC3)c2cc1F` [Example 1, 1-Cyclohexylmethyl-2-(2-cyclopentylmethoxy-pyridin-3-yl)-5,6-difluoro-1H-benzoimidazole]: 200 nM.
The same measure for `O=C(O)Cc1ccc(COc2cc(Cl)ccc2-c2nc3cc(F)c(F)cc3n2CC2CCCCC2)cc1` [Example 28, {4-[5-Chloro-2-(1-cyclohexylmethyl-5,6-difluoro-1H-benzoimidazol-2-yl)-phenoxymethyl]-phenyl}-acetic acid]: 200 nM; for `O=C(O)c1ccc(CCc2ccccc2-c2nc3ccccc3n2CC2CCCCC2)cc1` [Example 78, 4-{2-[2-(1-Cyclohexylmethyl-1H-benzoimidazol-2-yl)-phenyl]-ethyl}-benzoic acid]: 90 nM.
The compound `c1ccc(-c2nc3ccccc3n2CC2CCCCC2)c(CCc2ccc(-c3nnn[nH]3)cc2)c1` [Example 80, 1-Cyclohexylmethyl-2-(2-{2-[4-(1H-tetrazol-5-yl)-phenyl]-ethyl}-phenyl)-1H-benzoimidazole] gave an IC50 of 30 nM.
In the case of `Fc1cc2nc(-c3ccc(Cl)cc3OCc3ccc(-c4nnn[nH]4)cc3F)n(CC3CCCC3)c2cc1F` [Example 42, 2-{4-Chloro-2-[2-fluoro-4-(1H-tetrazol-5-yl)-benzyloxy]-phenyl}-1-cyclopentylmethyl-5,6-difluoro-1H-benzoimidazole], the IC50 is 40 nM. The IC50 values of the last two compounds are within 1.5-fold of each other.
For `Fc1cc2nc(-c3ccc(Cl)cc3OCc3ccc(-c4nnn[nH]4)cc3F)n(CC3CCOCC3)c2cc1F` [Example 47, 2-{4-Chloro-2-[2-fluoro-4-(1H-tetrazol-5-yl)-benzyloxy]-phenyl}-5,6-difluoro-1-(tetrahydro-pyran-4-ylmethyl)-1H-benzoimidazole] the value was 900 nM; for `Fc1cc2nc(-c3ccc(Cl)cc3OCC3CC3)n(Cc3ccc(-c4nnn[nH]4)cc3F)c2cc1F` [Example 89, 2-(4-Chloro-2-cyclopropylmethoxy-phenyl)-5,6-difluoro-1-[2-fluoro-4-(1H-tetrazol-5-yl)-benzyl]-1H-benzoimidazole], 60 nM.
The same measure for `Fc1cc(-c2nnn[nH]2)ccc1Cn1c(-c2ccc(Cl)cc2OCC2CCCC2)nc2ccccc21` [Example 95, 2-(4-Chloro-2-cyclopentylmethoxy-phenyl)-1-[2-fluoro-4-(1H-tetrazol-5-yl)-benzyl]-1H-benzoimidazole]: 10 nM.
For `O=C(O)c1ccc(CCOc2cc(Cl)ccc2-c2nc3cc(F)c(F)cc3n2CC2CCCCC2)cc1` [Example 27, 4-{2-[5-Chloro-2-(1-cyclohexylmethyl-5,6-difluoro-1H-benzoimidazol-2-yl)-phenoxy]-ethyl}-benzoic acid] the value was 500 nM; for `O=C(O)CCc1ccc(Cn2c(-c3ccc(Cl)cc3OCC3CCCC3)nc3cc(F)c(F)cc32)cc1` [Example 59, 3-{4-[2-(4-Chloro-2-cyclopentylmethoxy-phenyl)-5,6-difluoro-benzoimidazol-1-ylmethyl]-phenyl}-propionic acid], 300 nM.
Regarding `Fc1cc2nc(-c3ccc(Cl)cc3OCc3ccccc3Cl)n(Cc3cccc(Cl)c3)c2cc1F` [Example 53, 1-(3-Chloro-benzyl)-2-[4-chloro-2-(2-chloro-benzyloxy)-phenyl]-5,6-difluoro-1H-benzoimidazole], the IC50 stood at 1700 nM.
Compound `Fc1cc2nc(-c3cccnc3OCC3CCCC3)n(Cc3cccc(Cl)c3)c2cc1F` [Example 12, 1-(3-Chloro-benzyl)-2-(2-cyclopentylmethoxy-pyridin-3-yl)-5,6-difluoro-1H-benzoimidazole] gave an IC50 of 1500 nM.
The same measure for `Fc1cc2nc(-c3cccnc3OCC3CC3)n(Cc3ccccc3)c2cc1F` [Example 8, 1-Benzyl-2-(2-cyclopropylmethoxy-pyridin-3-yl)-5,6-difluoro-1H-benzoimidazole]: 5600 nM; for `Fc1cc2nc(-c3ccc(Cl)cc3OCC3CCCC3)n(Cc3cccc(Cl)c3)c2cc1F` [Example 54, 1-(3-Chloro-benzyl)-2-(4-chloro-2-cyclopentylmethoxy-phenyl)-5,6-difluoro-1H-benzoimidazole]: 1200 nM; for `Fc1cc2nc(-c3ccc(Cl)cc3OCc3ccc(-c4nnn[nH]4)cc3C(F)(F)F)n(CC3CCCCC3)c2cc1F` [Example 38, 2-{4-Chloro-2-[4-(1H-tetrazol-5-yl)-2-trifluoromethyl-benzyloxy]-phenyl}-1-cyclohexylmethyl-5,6-difluoro-1H-benzoimidazole]: 200 nM.
The same measure for `Fc1cc2nc(-c3cccnc3OCc3ccccc3Cl)n(Cc3cccc(Cl)c3)c2cc1F` [Example 11, 1-(3-Chloro-benzyl)-2-[2-(2-chloro-benzyloxy)-pyridin-3-yl]-5,6-difluoro-1H-benzoimidazole]: 800 nM.
The same measure for `Fc1cc2nc(-c3ccc(Cl)cc3OCc3ccccc3Cl)n(CC3CCCCC3)c2cc1F` [Example 19, 2-[4-Chloro-2-(2-chloro-benzyloxy)-phenyl]-1-cyclohexylmethyl-5,6-difluoro-1H-benzoimidazole]: 300 nM; for `Fc1cc2nc(-c3ccc(Cl)cc3OCC3CCCC3)n(CC3CCCCC3)c2cc1F` [Example 20, 2-(4-Chloro-2-cyclopentylmethoxy-phenyl)-1-cyclohexylmethyl-5,6-difluoro-1H-benzoimidazole]: 200 nM.

Source of the values: patent publication US8309581B2, “Benzimidazole derivatives” (Hoffmann-La Roche Inc., priority 2009, dated 2012).
